Source: ChEMBL document CHEMBL5465560, “Selectivity Literature for EUbOPEN Chemogenomic Library” (2024)

Assays:
[1] = system: T1, Receptor-type tyrosine-protein kinase FLT3 (Homo sapiens), P36888 [R834Q]; assay: (§1) Selectivity interaction (KinomeScan (DiscoverX)) EUB0000666a FLT3; conditions: at 10 µM
T1 sequence (whole entry): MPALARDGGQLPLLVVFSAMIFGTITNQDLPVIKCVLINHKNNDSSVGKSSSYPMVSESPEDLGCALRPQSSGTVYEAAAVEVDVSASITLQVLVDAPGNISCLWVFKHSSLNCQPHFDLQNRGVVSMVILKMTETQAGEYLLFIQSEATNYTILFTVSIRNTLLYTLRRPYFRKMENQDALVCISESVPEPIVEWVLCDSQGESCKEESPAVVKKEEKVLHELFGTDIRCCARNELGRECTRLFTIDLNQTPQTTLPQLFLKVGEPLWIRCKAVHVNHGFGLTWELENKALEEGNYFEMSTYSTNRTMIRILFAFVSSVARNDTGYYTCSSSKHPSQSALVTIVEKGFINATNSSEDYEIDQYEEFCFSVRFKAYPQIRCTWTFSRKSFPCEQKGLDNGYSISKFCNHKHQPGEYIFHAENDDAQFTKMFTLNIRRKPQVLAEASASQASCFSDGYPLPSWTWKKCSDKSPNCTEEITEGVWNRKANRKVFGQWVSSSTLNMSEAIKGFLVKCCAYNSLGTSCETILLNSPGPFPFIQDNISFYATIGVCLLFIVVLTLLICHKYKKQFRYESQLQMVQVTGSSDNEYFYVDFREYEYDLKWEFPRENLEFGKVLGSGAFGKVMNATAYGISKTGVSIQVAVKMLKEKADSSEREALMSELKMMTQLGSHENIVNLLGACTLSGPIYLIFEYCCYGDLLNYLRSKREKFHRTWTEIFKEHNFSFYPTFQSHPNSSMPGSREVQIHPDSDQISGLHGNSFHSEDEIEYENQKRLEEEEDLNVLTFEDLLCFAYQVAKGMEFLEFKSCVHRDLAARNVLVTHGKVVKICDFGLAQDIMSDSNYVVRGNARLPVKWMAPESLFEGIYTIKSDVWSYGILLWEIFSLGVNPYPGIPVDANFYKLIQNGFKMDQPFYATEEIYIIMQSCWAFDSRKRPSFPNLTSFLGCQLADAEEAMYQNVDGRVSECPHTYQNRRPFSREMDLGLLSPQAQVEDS

[2] = system: Receptor-type tyrosine-protein kinase FLT3 (Homo sapiens), P36888 [UNDEFINED MUTATION]; assay: as §1; conditions: at 10 µM
[3] = target: T2, Serine/threonine-protein kinase Nek10 (Homo sapiens) (UniProt Q6ZWH5); assay: Selectivity interaction (KinomeScan (DiscoverX)) EUB0001049a NEK10; conditions: at 1 µM
T2 sequence (whole entry): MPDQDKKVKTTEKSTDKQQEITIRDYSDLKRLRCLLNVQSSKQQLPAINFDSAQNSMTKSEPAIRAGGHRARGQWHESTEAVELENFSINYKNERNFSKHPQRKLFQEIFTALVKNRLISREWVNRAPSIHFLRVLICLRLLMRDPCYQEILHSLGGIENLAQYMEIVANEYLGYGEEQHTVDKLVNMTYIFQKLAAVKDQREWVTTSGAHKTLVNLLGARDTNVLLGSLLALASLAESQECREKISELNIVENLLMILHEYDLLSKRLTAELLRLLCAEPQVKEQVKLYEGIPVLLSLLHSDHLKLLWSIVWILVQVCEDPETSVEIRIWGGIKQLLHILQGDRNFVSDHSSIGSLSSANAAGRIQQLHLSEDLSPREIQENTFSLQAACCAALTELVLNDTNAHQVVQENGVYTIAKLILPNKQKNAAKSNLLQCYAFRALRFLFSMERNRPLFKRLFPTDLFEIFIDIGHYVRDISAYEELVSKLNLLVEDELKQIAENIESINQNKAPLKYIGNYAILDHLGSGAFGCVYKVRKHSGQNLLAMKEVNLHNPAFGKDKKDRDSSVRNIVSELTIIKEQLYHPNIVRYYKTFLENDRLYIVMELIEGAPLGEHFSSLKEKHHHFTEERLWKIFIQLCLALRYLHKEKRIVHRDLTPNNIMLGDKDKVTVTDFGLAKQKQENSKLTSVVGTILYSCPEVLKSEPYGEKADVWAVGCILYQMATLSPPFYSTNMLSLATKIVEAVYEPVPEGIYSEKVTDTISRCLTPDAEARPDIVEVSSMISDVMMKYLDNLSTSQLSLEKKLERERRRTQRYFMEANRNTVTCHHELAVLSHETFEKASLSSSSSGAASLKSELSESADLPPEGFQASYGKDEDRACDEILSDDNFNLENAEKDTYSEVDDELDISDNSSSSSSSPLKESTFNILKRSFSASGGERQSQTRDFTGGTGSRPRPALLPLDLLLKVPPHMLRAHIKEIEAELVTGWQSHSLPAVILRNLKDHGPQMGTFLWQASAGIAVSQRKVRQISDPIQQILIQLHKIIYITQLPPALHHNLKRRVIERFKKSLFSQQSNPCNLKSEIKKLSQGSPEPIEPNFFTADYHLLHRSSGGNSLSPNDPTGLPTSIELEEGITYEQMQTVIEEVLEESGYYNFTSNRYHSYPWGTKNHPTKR

**Q.** Which results are given for `O=C(NOC[C@H](O)CO)c1ccc(F)c(F)c1Nc1ccc(I)cc1F`?
**A.** % of control [1]: 78%; % of control [2]: 100%

**Q.** `COc1cc(Nc2nc(C)cc(-c3cnn4nc(OC)ccc34)n2)cc(C(F)(F)F)c1` was tested. Which % of control [3] did it give?
**A.** Its % of control is 100%.
